Two compounds from publication PMC12104086, “Identification of a multiple DAMP scavenger mimicking the DAMP-binding site of TLR4 to ameliorate lethal sepsis” (Frontiers in Immunology, 2025) can be followed below.

The test system of data set [1] is C57BL/6 mice (sham). Description: Cytokine production in sham mice treated with OP18. Type of data set: in vivo, mouse. The settings on record: OP18-treated sham versus sham, 20 h, blood, ELISA. The protocol: (§1) Supplemental Figure 6: Toxicity Assay of OP18
(§2) Note: (A) RAW264.7 cells were treated with OP18 for 20 h and MTS assay was performed using a CellTiter 96® AQueous Non-Radioactive Cell Proliferation Assay kit (Promega, Madison, Wisconsin) according to the manufacturer’s instructions. (B) Mouse peritoneal macrophages were treated with OP18 for 20 h and CyQUANT™ LDH Cytotoxicity Assay (Thermo Fisher Scientific, Waltham, MA) was performed according to the manufacturer’s instruction s. Data are expressed as mean ± SEM (n=3-4 samples/group) and compared by one -way ANOVA and a Tukey’s multiple comparison test. ns: not significant, *p < 0.05 versus PBS (C, D) Sham mice were treated with OP18 for 20h and blood were collected. (C) IL-6 and (D) TNFα were […]
(§3) Data are expressed as mean ± SEM and compared by unpaired two -tailed Student’s t-test. not significant (ns) vs sham.
(§4) (1 picture or pasted object on this page, not shown here)
In general terms: ELISA stands for enzyme-linked immunosorbent assay.

Data set [2] relates to mouse peritoneal macrophages. In words: LDH cytotoxicity assay. Type of data set: cell-based. The settings on record: 20 h, n=3-4, versus PBS. On the procedure: as §1, §2, §3, §4
The subject of data set [3] is RAW264.7 cells. Description: MTS cytotoxicity assay. Type of data set: cell-based, mouse. The settings on record: 20 h, n=3-4, versus PBS. On the procedure: as §1, §2, §3, §4
On the technique in general: Tetrazolium assays rely on reduction of a dye to a coloured formazan, in cell work by metabolically active cells.

Data set [4] concerns C57BL/6 mice, cecal ligation and puncture (CLP). Description: CLP lethal sepsis model, 20 h: plasma DAMPs, serum cytokines and organ injury markers. Type of data set: in vivo, mouse. The following applies: 80 nmol/kg i.p. once at abdominal closure, 20 h after CLP; n = 7–9; scrambled: vs sham; OP18: vs scrambled peptide; p < 0.05. The protocol: Polymicrobial sepsis was induced in mice by cecal ligation and puncture (CLP) ([7], [23]). Mice were anesthetized with isoflurane, and a midline abdominal incision was performed. The cecum was ligated with a 4–0 silk suture 1 cm proximal from its distal extremity and puncture using a 22-G needle was made twice (through and through) for a 20-h study and once for a survival study. A control (scrambled peptide) or OP18, both with 80 nmol/kg body weight (BW), was injected intraperitoneally (i.p.) before the closure. Sham animals were subjected to a laparotomy without CLP. Following the surgery, 1 mL of saline was injected subcutaneously to avoid surgery-induced dehydration, and 0.05 mg/kg buprenorphine was injected subcutaneously as an analgesic; 20 h after the surgery, the blood and lungs were collected. In the 20-h model, antibiotics were not administered, whereas in the survival study, 0.5 mg/kg BW of Imipenem was injected subcutaneously.
Blood was collected, centrifuged at 1,000 × g for 10 min, and plasma or serum was separated. Plasma levels of eCIRP, HMGB1, and histone H3 were analyzed by ELISA kits according to the manufacturer’s instruction (eCIRP from American Research Products, Inc., Waltham, MA, USA, HMGB1 from Invitrogen, Thermo Fisher Scientific, and histone H3 from LS Bio, Shirley, MA, USA). Serum levels of IL-6 and TNF-α were analyzed by ELISA kits (IL-6 and TNF-α both from BD Biosciences, Franklin Lakes, NJ, USA) according to the manufacturer’s instruction. Serum levels of aspartate aminotransferase (AST), lactate dehydrogenase (LDH), blood urea nitrogen (BUN), and creatinine (Cre) were measured by specific colorimetric enzymatic assays (Pointe Scientific, Canton, MI). Absorbance was measured on a Synergy Neo2 (Agilent Technologies) according to the manufacturer’s instructions.
Figure 4 OP18 alleviates systemic inflammation and tissue injury in sepsis. Intraperitoneal injection of 80 nmol/kg scrambled peptide or 80 nmol/kg OP18 was performed on CLP mice before skin closure. Blood and lungs were collected 20 h after CLP. (A–C) Plasma levels of (A) eCIRP, (B) HMGB1, and (C) histone H3. (D–I) Serum levels of (D) IL-6, (E) TNF-α, (F) AST, (G) LDH, (H) BUN, and (I) Cre. Data are expressed as mean ± SEM (n = 7–9 samples/group) and were compared using one-way ANOVA followed by Tukey’s multiple comparison test. ^* p < 0.05 versus sham; ^# p < 0.05 versus scrambled peptide. Experiments were performed three times, and all data were used for analysis.

Turning to `CC[C@H](C)[C@H](NC(=O)[C@H](CC(N)=O)NC(=O)[C@H](CO)NC(=O)[C@H](CO)NC(=O)[C@H](CC(N)=O)NC(=O)[C@H](Cc1ccccc1)NC(=O)[C@H](CC(N)=O)NC(=O)CN)C(=O)N[C@@H](CCSC)C(=O)N[C@@H](CCCCN)C(=O)N[C@H](C(=O)N[C@@H](CS)C(=O)N[C@@H](CC(C)C)C(=O)N[C@@H](CCC(N)=O)C(=O)N[C@@H](CC(N)=O)C(=O)N[C@@H](CCCNC(=N)N)C(=O)NCC(=O)N[C@@H](CC(=O)O)C(=O)O)[C@@H](C)O` [OP18], in data set [1], the “IL-6 in sham mice” value is listed as “No significant difference” and the “TNFα in sham mice” value is “No significant difference”. In addition, in data set [2], the “cytotoxicity on macrophages (LDH)” value is “did not observe any cytotoxicity”. For the same compound, in data set [3], the “cytotoxicity on macrophages (MTS)” value is “did not observe any cytotoxicity”.
For the compound “NRKINMGSFTQCSNNLGD [scrambled peptide, scrambled control peptide for OP18 ([…])]”, in data set [4], the “plasma HMGB1 level” value is “significantly elevated”, the “plasma eCIRP level” value is “significantly elevated”, the “plasma histone H3 level” value is recorded as “significantly elevated” and the “serum AST” value is “significantly elevated”. In data set [4], the “serum BUN” value was “significantly elevated”, the “serum Cre” value is reported as “significantly elevated”, the “serum IL-6” value was “significantly elevated” and the “serum LDH” value is recorded as “significantly elevated”. Further, in data set [4], the “serum TNF-α” value is on record as “significantly elevated”.
